Measurements from US20010003848A1, “DNA SEQUENCES FOR AMMONIUM TRANSPORTER, PLASMIDS, BACTERIA, YEASTS, PLANT CELLS AND PLANTS CONTAINING THE TRANSPORTER” (priority 1993, published 2001).
Several values for one entry are separate records, joined by “and”; a condition that tells them apart may be missing. Equal values may be shown once. Read-outs that look alike come from different tables or passages of the source.

Assays:
yeast strain Σ1278b = experiment: Uptake of ^14C-methylamine in yeast strain Σ1278b; format: cell-based, Saccharomyces cerevisiae; conditions: 10 mM glucose; for Uptake of ^14C-methylamine in presence of carbonyl cyanide m-chlorophenylhydrazone (CCCP): Σ1278b +CCCP 10 pM; for Uptake of ^14C-methylamine in presence of 0.1 mM dinitrophenol (DNP): Σ1278b +DNP 0.1 mM
Method: (§1) The yeast lines 26972c::pFL61, 26972c::pFL61-MEP-a and their starting lines S1278b (Dubois & Grenson, 1979, Mol Gen Genet 175: 67-76, MEP-1/MEP-2 ura3) were grown in liquid medium with 1.7 g yeast nitrogen base without ammonium and without amino acids (Difco), 20 g agarose, 1% glucose (w/v), 0.5 mg/l proline until the culture reached the logarithmic phase. After centrifuging of each 25 ml of the culture the cells were washed with 10 mM phosphate pH 7 or pH 4 and taken up in 1.5 ml 10 mM phosphate buffer. Ten minutes before starting the transport measurements, it was made up to an end concentration of 10 mM glucose. […] of the suspension was added to a solution of 10 mM phosphate pH 4 or 7, 100 μM unlabelled methylamine and 5 μCi ^14C-labelled methylamine (0.1 mCi/1.9 μmol) (end concentrations). The uptake of the methylamine was measured after 10, 60, 120 and 180 seconds. For this, to 50 μl of starting material was taken and in a volume of 1 ml H2O+3 mM unlabelled methylamine absorbed on a glass fibre filter. After washing with 10 ml H2O+3 mM unlabelled methylamine the amount of ^14C-labelled methylamine taken up was measured by scintillation (Table Ia and Ib).

[1] = tested on: yeast line 26972c::pFL61-MEP-a; format: cell-based, Saccharomyces cerevisiae; conditions: 10 mM glucose; for Uptake of ^14C-methylamine in presence of carbonyl cyanide m-chlorophenylhydrazone: 26972c::pF161 MEP-a +CCCP 10 pM; for Uptake of ^14C-methylamine in presence of 0.1 mM dinitrophenol (DNP): 26972c::pFL61-MEP-a +DNP 0.1 mM; for Uptake of ^14C-methylamine: 26972c::pFL61-MEP-a, two independent series
Method: as §1

Saccharomyces cerevisiae = conditions: cited from earlier work
[2] = tested on: yeast strain 26972c::pFL61; experiment: Uptake of ^14C-methylamine in yeast strain 26972c::pFL61 (zero control, plasmid without cDNA insertion); format: cell-based, Saccharomyces cerevisiae; conditions: 10 mM glucose
Method: as §1

Compound: N#CC(C#N)=NNc1cccc(Cl)c1 [CCCP, carbonyl cyanide m-chlorophenylhydrazone]
- Uptake of ^14C-methylamine in presence of carbonyl cyanide m-chlorophenylhydrazone (CCCP) (yeast strain Σ1278b; pH = 7, 10 sec): 173.20 cpm
- Uptake of ^14C-methylamine in presence of carbonyl cyanide m-chlorophenylhydrazone (CCCP) (yeast strain Σ1278b; pH = 7, 60 sec): 316.80 cpm
- Uptake of ^14C-methylamine in presence of carbonyl cyanide m-chlorophenylhydrazone (CCCP) (yeast strain Σ1278b; pH = 7, 120 sec): 460.40 cpm
- Uptake of ^14C-methylamine in presence of carbonyl cyanide m-chlorophenylhydrazone (CCCP) (yeast strain Σ1278b; pH = 7, 180 sec): 608.00 cpm
- Uptake of ^14C-methylamine in presence of carbonyl cyanide m-chlorophenylhydrazone ([1]; pH = 7, 10 sec): 484.60 cpm
- Uptake of ^14C-methylamine in presence of carbonyl cyanide m-chlorophenylhydrazone ([1]; pH = 7, 60 sec): 1407.00 cpm
- Uptake of ^14C-methylamine in presence of carbonyl cyanide m-chlorophenylhydrazone ([1]; pH = 7, 120 sec): 2597.92 cpm
- Uptake of ^14C-methylamine in presence of carbonyl cyanide m-chlorophenylhydrazone ([1]; pH = 7, 180 sec): 3620.36 cpm

Compound: O=[N+]([O-])c1ccc(O)c([N+](=O)[O-])c1 [DNP]
- Uptake of ^14C-methylamine in presence of 0.1 mM dinitrophenol (DNP) (yeast strain Σ1278b; pH = 7, 10 sec): 167.20 cpm
- Uptake of ^14C-methylamine in presence of 0.1 mM dinitrophenol (DNP) (yeast strain Σ1278b; pH = 7, 60 sec): 386.00 cpm
- Uptake of ^14C-methylamine in presence of 0.1 mM dinitrophenol (DNP) (yeast strain Σ1278b; pH = 7, 120 sec): 706.80 cpm
- Uptake of ^14C-methylamine in presence of 0.1 mM dinitrophenol (DNP) (yeast strain Σ1278b; pH = 7, 180 sec): 906.00 cpm
- Uptake of ^14C-methylamine in presence of 0.1 mM dinitrophenol (DNP) ([1]; pH = 7, 10 sec): 378.00 cpm
- Uptake of ^14C-methylamine in presence of 0.1 mM dinitrophenol (DNP) ([1]; pH = 7, 60 sec): 1349.40 cpm
- Uptake of ^14C-methylamine in presence of 0.1 mM dinitrophenol (DNP) ([1]; pH = 7, 120 sec): 2794.44 cpm
- Uptake of ^14C-methylamine in presence of 0.1 mM dinitrophenol (DNP) ([1]; pH = 7, 180 sec): 2794.44 cpm

Compound: Cl.N [NH4Cl]
- Uptake of ^14C-methylamine in presence of 0.5 mM NH4Cl (yeast strain Σ1278b; 1278b, pH = 7, 10 sec): 356.60 cpm
- Uptake of ^14C-methylamine in presence of 0.5 mM NH4Cl (yeast strain Σ1278b; 1278b, pH = 7, 60 sec): 885.60 cpm
- Uptake of ^14C-methylamine in presence of 0.5 mM NH4Cl (yeast strain Σ1278b; 1278b, pH = 7, 120 sec): 1237.80 cpm
- Uptake of ^14C-methylamine in presence of 0.5 mM NH4Cl (yeast strain Σ1278b; 1278b, pH = 7, 180 sec): 1597.40 cpm
- inhibition of methylamine-uptake functions (Saccharomyces cerevisiae; both transport functions of Saccharomyces): inhibitable
- Uptake of ^14C-methylamine in presence of 0.5 mM NH4Cl ([2]; 26972c::pFL61, pH = 7, 10 sec): 271.60 cpm
- Uptake of ^14C-methylamine in presence of 0.5 mM NH4Cl ([2]; 26972c::pFL61, pH = 7, 60 sec): 795.80 cpm
- Uptake of ^14C-methylamine in presence of 0.5 mM NH4Cl ([2]; 26972c::pFL61, pH = 7, 120 sec): 1388.20 cpm
- Uptake of ^14C-methylamine in presence of 0.5 mM NH4Cl ([2]; 26972c::pFL61, pH = 7, 180 sec): 1773.00 cpm

Compound: CN [^14C-methylamine, methylamine]
- Uptake of ^14C-methylamine (yeast strain Σ1278b; 1278b, pH = 7, 10 sec): 469.60 cpm
- Uptake of ^14C-methylamine (yeast strain Σ1278b; 1278b, pH = 7, 60 sec): 1022.80 cpm
- Uptake of ^14C-methylamine (yeast strain Σ1278b; 1278b, pH = 7, 120 sec): 6176.36 cpm
- Uptake of ^14C-methylamine (yeast strain Σ1278b; 1278b, pH = 7, 180 sec): 16826.67 cpm
- Uptake of ^14C-methylamine (yeast strain Σ1278b; Σ1278b, pH = 4, 10 sec): 289.00 cpm
- Uptake of ^14C-methylamine (yeast strain Σ1278b; Σ1278b, pH = 4, 60 sec): 1151.20 cpm
- Uptake of ^14C-methylamine (yeast strain Σ1278b; Σ1278b, pH = 4, 120 sec): 19605.46 cpm
- Uptake of ^14C-methylamine (yeast strain Σ1278b; Σ1278b, pH = 4, 180 sec): 32651.43 cpm
- Uptake of ^14C-methylamine ([1]; pH = 4, 10 sec): 204.80 cpm and 214.80 cpm
- Uptake of ^14C-methylamine ([1]; pH = 4, 60 sec): 283.80 cpm and 345.60 cpm
- Uptake of ^14C-methylamine ([1]; pH = 4, 120 sec): 434.40 cpm and 594.60 cpm
- Uptake of ^14C-methylamine ([1]; pH = 4, 180 sec): 479.60 cpm and 842.20 cpm
- Uptake of ^14C-methylamine ([1]; pH = 7, 10 sec): 302.80 cpm and 352.20 cpm
- Uptake of ^14C-methylamine ([1]; pH = 7, 60 sec): 1247.80 cpm and 1292.20 cpm
- Uptake of ^14C-methylamine ([1]; pH = 7, 120 sec): 3152.50 cpm and 3478.28 cpm
- Uptake of ^14C-methylamine ([1]; pH = 7, 180 sec): 8490.83 cpm and 6099.39 cpm
- maximum speed Vmax (Saccharomyces cerevisiae; high affinity transporter with low capacity): 20 nmol/min per mg cells (dry weight)
- Km (Saccharomyces cerevisiae; high affinity transporter with low capacity, read-out: Km value): 250 µM
- Vmax (Saccharomyces cerevisiae; low affinity system with high capacity): 50 nmol/min per mg cells
- Km (Saccharomyces cerevisiae; low affinity system with high capacity, read-out: Km): 2000 µM
- Vmax (Saccharomyces cerevisiae; low affinity system with medium capacity): 33 nmol/min per mg cells
- Km (Saccharomyces cerevisiae; low affinity system with medium capacity, read-out: Km): 20000 µM
- Uptake of ^14C-methylamine ([2]; 26972c::pFL61, pH = 4, 10 sec, two independent series): 220.20 cpm and 117.20 cpm
- Uptake of ^14C-methylamine ([2]; 26972c::pFL61, pH = 4, 60 sec, two independent series): 200.60 cpm and 138.60 cpm
- Uptake of ^14C-methylamine ([2]; 26972c::pFL61, pH = 4, 120 sec, two independent series): 284.80 cpm and 197.40 cpm
- Uptake of ^14C-methylamine ([2]; 26972c::pFL61, pH = 4, 180 sec, two independent series): 317.60 cpm and 285.60 cpm
- Uptake of ^14C-methylamine ([2]; 26972c::pFL61, pH = 7, 10 sec): 202.20 cpm
- Uptake of ^14C-methylamine ([2]; 26972c::pFL61, pH = 7, 60 sec): 291.80 cpm
- Uptake of ^14C-methylamine ([2]; 26972c::pFL61, pH = 7, 120 sec): 524.80 cpm
- Uptake of ^14C-methylamine ([2]; 26972c::pFL61, pH = 7, 180 sec): 797.80 cpm
